Our source for the Ki values is patent US9226916B2, “Pyrrolidine derivatives” (HOFFMANN-LA ROCHE INC., priority 2009, dated 2016).

The first assay concerns the target T1, recombinant human NK3 receptor (Homo sapiens, UniProt P29371).
T1 construct: expressed in transfected cells; host or cells: HEK293 cells, transient expression; membranes
T1 sequence (P29371 1-465): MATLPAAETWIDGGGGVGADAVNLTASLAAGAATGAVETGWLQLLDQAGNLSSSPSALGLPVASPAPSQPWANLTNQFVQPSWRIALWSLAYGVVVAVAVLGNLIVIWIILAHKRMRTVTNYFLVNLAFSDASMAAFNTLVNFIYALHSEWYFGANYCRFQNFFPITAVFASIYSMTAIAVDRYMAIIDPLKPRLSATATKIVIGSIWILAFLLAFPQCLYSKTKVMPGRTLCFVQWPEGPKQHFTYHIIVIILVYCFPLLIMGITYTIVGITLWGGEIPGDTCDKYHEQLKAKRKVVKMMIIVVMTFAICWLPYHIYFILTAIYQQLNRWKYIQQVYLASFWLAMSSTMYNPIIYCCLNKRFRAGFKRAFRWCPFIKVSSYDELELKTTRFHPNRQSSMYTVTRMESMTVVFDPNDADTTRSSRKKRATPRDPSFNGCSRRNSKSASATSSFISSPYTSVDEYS
As to the kind of experiment: [3H]SR142801 competition binding assay.
Details: not given
For the compound `CN(C(=O)Oc1ccc(F)cc1)[C@H]1CN(C(=O)C2CCN(c3nncs3)CC2)C[C@@H]1c1ccc(Cl)c(Cl)c1` (racemic) [Example 78, rac-[(3R,4S)-4-(3,4-Dichloro-phenyl)-1-(1-[1,3,4]thiadiazol-2-yl-piperidine-4-carbonyl)-pyrrolidin-3-yl]-methyl-carbamic acid 4-fluoro-phenyl ester], the Ki is 1.5 nM.

With `CN(C(=O)OCC1CCOC1)[C@H]1CN(C(=O)C2CCN(C(=O)C3(C)CC3)CC2)C[C@@H]1c1ccc(Cl)c(Cl)c1` (mixture of isomers) [Example 85, rac-{(3R,4S)-4-(3,4-Dichloro-phenyl)-1-[1-(1-methyl-cyclopropanecarbonyl)-piperidine-4-carbonyl]-pyrrolidin-3-yl}-methyl-carbamic acid (S)-1-(tetrahydro-furan-3-yl)methyl ester and rac-{(3R,4S)-4-(3,4-Dichloro-phenyl)-1-[1-(1-methyl-cyclopropanecarbonyl)-piperidine-4-carbonyl]-pyrrolidin-3-yl}-methyl-carbamic acid (R)-1-(tetrahydro-furan-3-yl)methyl ester], the Ki stood at 9.2 nM.

Take `CN(C(=O)Oc1ccc(F)cc1)[C@@H]1CN(C(=O)C2CCN(C(=O)C3CC3(C)C)CC2)C[C@H]1c1ccc(Cl)cc1` (stereo partly drawn) [Example 260, {(3S,4R)-4-(4-Chloro-phenyl)-1-[1-(2,2-dimethyl-cyclopropanecarbonyl)-piperidine-4-carbonyl]-pyrrolidin-3-yl}-methyl-carbamic acid 4-fluoro-phenyl ester]: the Ki stood at 1.5 nM.

In the case of `CN(C(=O)Oc1ccc(F)cc1)[C@@H]1CN(C(=O)C2CCN(c3ncc(C(F)(F)F)cc3Cl)CC2)C[C@H]1c1ccc(Cl)cc1` [Example 188, [(3S,4R)-4-(4-Chloro-phenyl)-1-(3′-chloro-5′-trifluoromethyl-3,4,5,6-tetrahydro-2H-[1,2]bipyridinyl-4-carbonyl)-pyrrolidin-3-yl]-methyl-carbamic acid 4-fluoro-phenyl ester], the Ki was determined as 14.6 nM.

For the compound `CN(C(=O)Oc1ccc(F)cc1)[C@@H]1CN(C(=O)C2CCOCC2)C[C@H]1c1ccc(Cl)cc1` [Example 90, [(3S,4R)-4-(4-Chloro-phenyl)-1-(tetrahydro-pyran-4-carbonyl)-pyrrolidin-3-yl]-methyl-carbamic acid 4-fluoro-phenyl ester], the inhibition constant Ki amounted to 7.9 nM.

As to `CN(C(=O)Oc1ccc(F)cc1)[C@@H]1CN(C(=O)C2CCN(C(=O)c3ccc(C(F)(F)F)cn3)CC2)C[C@H]1c1ccc(F)cc1` [Example 290, {(3S,4R)-4-(4-Fluoro-phenyl)-1-[1-(5-trifluoromethyl-pyridine-2-carbonyl)-piperidine-4-carbonyl]-pyrrolidin-3-yl}-methyl-carbamic acid 4-fluoro-phenyl ester], the Ki came to 99.8 nM.

As to `CN(C(=O)Oc1ccc(F)cc1)[C@@H]1CN(C(=O)C2CCN(C(=O)C3(C(F)(F)F)CCC3)CC2)C[C@H]1c1ccc(F)cc1` [Example 289, {(3S,4R)-4-(4-Fluoro-phenyl)-1-[1-(1-trifluoromethyl-cyclobutanecarbonyl)-piperidine-4-carbonyl]-pyrrolidin-3-yl}-methyl-carbamic acid 4-fluoro-phenyl ester], the Ki amounted to 11 nM.

Turning to `CN(C(=O)Oc1ccc(Cl)cn1)[C@@H]1CN(C(=O)C2CCN(c3ccc(C#N)cn3)CC2)C[C@H]1c1ccc(Cl)cc1` [Example 244, [(3S,4R)-4-(4-Chloro-phenyl)-1-(5′-cyano-3,4,5,6-tetrahydro-2H-[1,2′]bipyridinyl-4-carbonyl)-pyrrolidin-3-yl]-methyl-carbamic acid 5-chloro-pyridin-2-yl ester], the inhibition constant (Ki) was determined as 20.9 nM.

The assay is the same for the next values; noted with them: hNK-3 receptor affinity; membranes from HEK293 cells transiently expressing recombinant human NK3 receptor; [3H]SR142801; Cheng-Prussoff; read-out: Data Ki.
In the case of `CN(C(=O)OC1CCC(C(F)(F)F)CC1)[C@H]1CN(C(=O)C2CCN(C(=O)C3(C)CC3)CC2)C[C@@H]1c1ccc(Cl)c(Cl)c1` (mixture of isomers) [Example 103, rac-{(3R,4S)-4-(3,4-Dichloro-phenyl)-1-[1-(1-methyl-cyclopropanecarbonyl)-piperidine-4-carbonyl]-pyrrolidin-3-yl}-methyl-carbamic acid 4-trifluoromethyl-cyclohexyl ester], the Ki was determined as 1.8 nM.
